Measurements from ChEMBL document CHEMBL3885861, “Open TG-GATES”.

Species: Rattus norvegicus
Assay: Open TG-GATES - Regimen: Single
Assay type: toxicity, organism-based, Sprague-Dawley
Parameters: regimen Single, gender Male, age 6 weeks
Conditions: in vivo, ip, 0 mg/kg, route intraperitoneal injection, dose level Control; for APTT / Bas / Eos / Fbg / Hb / Ht / Lym / MCH / MCHC / MCV / Mono / Neu / PT / Plat / RBC / Ret / WBC: tissue Blood; for KIDNEY_L / KIDNEY_R / KIDNEY_TOTAL: tissue Kidney; for LIVER: tissue Liver; for A/G / ALP / ALT / AST / BUN / CRE / Ca / Cl / DBIL / GLC / IP / K / LDH / Na / PL / RALB / TBIL / TC / TG / TP / gamma-GTP: tissue Plasma

## CC(C)=CC(=O)C=C(C)C [PHORONE]
3 h
  TERMINAL_BW: 224.3 g
  APTT: 17.2 s
  Bas: 0%
  Eos: 1%
  Fbg: 227.4 mg/dL
  Hb: 13.5 g/dL
  Ht: 40.2%
  Lym: 71%
  MCH: 22.1 pg
  MCHC: 33.5%
  MCV: 65.9 fL
  Mono: 8.2%
  Neu: 19.8%
  PT: 12.2 s
  Plat: 114.4 x10_4/uL
  RBC: 609.2 x10_4/ul
  Ret: 9.2%
  WBC: 97 x10_2/uL
  KIDNEY_L: 1 g
  KIDNEY_R: 1 g
  KIDNEY_TOTAL: 2 g
  LIVER: 10.7 g
  A/G: 1.9
  ALP: 863.8 IU/L
  ALT: 35.2 IU/L
  AST: 73.4 IU/L
  BUN: 13.6 mg/dL
  CRE: 0.5 mg/dL
  Ca: 11.1 mg/dL
  Cl: 106.2 meq/L
  DBIL: 0.02 mg/dL
  GLC: 195 mg/dL
  IP: 9.9 mg/dL
  K: 5.1 meq/L
  LDH: 86 IU/L
  Na: 139.6 meq/L
  PL: 142.8 mg/dL
  RALB: 3.6 g/dL
  TBIL: 0.4 mg/dL
  TC: 75.8 mg/dL
  TG: 99 mg/dL
  TP: 5.6 g/dL
  gamma-GTP: 1.4 IU/L
6 h
  TERMINAL_BW: 219.5 g
  APTT: 17.4 s
  Bas: 0%
  Eos: 0.6%
  Fbg: 223.8 mg/dL
  Hb: 13.2 g/dL
  Ht: 39.7%
  Lym: 74.6%
  MCH: 21.2 pg
  MCHC: 33.2%
  MCV: 63.9 fL
  Mono: 4.4%
  Neu: 20.4%
  PT: 12.3 s
  Plat: 118.6 x10_4/uL
  RBC: 620.2 x10_4/ul
  Ret: 9.1%
  WBC: 102.1 x10_2/uL
  KIDNEY_L: 0.9 g
  KIDNEY_R: 0.9 g
  KIDNEY_TOTAL: 1.9 g
  LIVER: 9.7 g
  A/G: 2
  ALP: 700.4 IU/L
  ALT: 34.8 IU/L
  AST: 72.8 IU/L
  BUN: 12.6 mg/dL
  CRE: 0.5 mg/dL
  Ca: 10.6 mg/dL
  Cl: 105.2 meq/L
  DBIL: 0.024 mg/dL
  GLC: 210.4 mg/dL
  IP: 10.2 mg/dL
  K: 4.7 meq/L
  LDH: 65 IU/L
  Na: 139 meq/L
  PL: 137 mg/dL
  RALB: 3.5 g/dL
  TBIL: 0.4 mg/dL
  TC: 77.8 mg/dL
  TG: 50 mg/dL
  TP: 5.2 g/dL
  gamma-GTP: 1.2 IU/L
9 h
  TERMINAL_BW: 217.4 g
  APTT: 17.2 s
  Bas: 0%
  Eos: 0.8%
  Fbg: 246.8 mg/dL
  Hb: 13.1 g/dL
  Ht: 39.7%
  Lym: 70%
  MCH: 21.7 pg
  MCHC: 33.1%
  MCV: 65.5 fL
  Mono: 4.6%
  Neu: 25.2%
  PT: 11.9 s
  Plat: 112.4 x10_4/uL
  RBC: 606.8 x10_4/ul
  Ret: 9.2%
  WBC: 108.4 x10_2/uL
  KIDNEY_L: 0.9 g
  KIDNEY_R: 1 g
  KIDNEY_TOTAL: 1.9 g
  LIVER: 9 g
  A/G: 2.1
  ALP: 720.6 IU/L
  ALT: 29.8 IU/L
  AST: 60.6 IU/L
  BUN: 11.4 mg/dL
  CRE: 0.5 mg/dL
  Ca: 10.7 mg/dL
  Cl: 105.8 meq/L
  DBIL: 0.066 mg/dL
  GLC: 200.6 mg/dL
  IP: 10.6 mg/dL
  K: 4.5 meq/L
  LDH: 74.8 IU/L
  Na: 138.8 meq/L
  PL: 138.6 mg/dL
  RALB: 3.8 g/dL
  TBIL: 0.4 mg/dL
  TC: 79.8 mg/dL
  TG: 42.8 mg/dL
  TP: 5.6 g/dL
  gamma-GTP: 1.4 IU/L
24 h
  TERMINAL_BW: 237.9 g
  APTT: 17.4 s
  Bas: 0%
  Eos: 1%
  Fbg: 276.4 mg/dL
  Hb: 12.9 g/dL
  Ht: 38.6%
  Lym: 73.6%
  MCH: 21.5 pg
  MCHC: 33.3%
  MCV: 64.8 fL
  Mono: 4.6%
  Neu: 20.6%
  PT: 11.7 s
  Plat: 118.3 x10_4/uL
  RBC: 596.2 x10_4/ul
  Ret: 8.4%
  WBC: 101.3 x10_2/uL
  KIDNEY_L: 1 g
  KIDNEY_R: 1.1 g
  KIDNEY_TOTAL: 2.1 g
  LIVER: 11.7 g
  A/G: 1.9
  ALP: 856.2 IU/L
  ALT: 28.8 IU/L
  AST: 55.6 IU/L
  BUN: 16.4 mg/dL
  CRE: 0.5 mg/dL
  Ca: 10.9 mg/dL
  Cl: 103.2 meq/L
  DBIL: 0.026 mg/dL
  GLC: 195.4 mg/dL
  IP: 8.7 mg/dL
  K: 4.9 meq/L
  LDH: 66.2 IU/L
  Na: 138.4 meq/L
  PL: 140.6 mg/dL
  RALB: 3.6 g/dL
  TBIL: 0.4 mg/dL
  TC: 78.4 mg/dL
  TG: 80.8 mg/dL
  TP: 5.6 g/dL
  gamma-GTP: 1.6 IU/L
